Test results reported in patent US20090155209A1, “NOVEL MACROCYCLIC INHIBITORS OF HEPATITIS C VIRUS REPLICATION” (priority 2007, published 2009).

Key:
[1] = biological target: T1, NS3-NS4 (Hepatitis C virus genotype 1a, UniProt P27958); test: cell-based; settings: EC50, NS3-NS4 activity
[2] = biological target: T1, NS3-NS4; test: NS3-NS4 activity, IC50 (Example 37, Table 8); format: biochemical

T1 sequence (P27958 1027-1657): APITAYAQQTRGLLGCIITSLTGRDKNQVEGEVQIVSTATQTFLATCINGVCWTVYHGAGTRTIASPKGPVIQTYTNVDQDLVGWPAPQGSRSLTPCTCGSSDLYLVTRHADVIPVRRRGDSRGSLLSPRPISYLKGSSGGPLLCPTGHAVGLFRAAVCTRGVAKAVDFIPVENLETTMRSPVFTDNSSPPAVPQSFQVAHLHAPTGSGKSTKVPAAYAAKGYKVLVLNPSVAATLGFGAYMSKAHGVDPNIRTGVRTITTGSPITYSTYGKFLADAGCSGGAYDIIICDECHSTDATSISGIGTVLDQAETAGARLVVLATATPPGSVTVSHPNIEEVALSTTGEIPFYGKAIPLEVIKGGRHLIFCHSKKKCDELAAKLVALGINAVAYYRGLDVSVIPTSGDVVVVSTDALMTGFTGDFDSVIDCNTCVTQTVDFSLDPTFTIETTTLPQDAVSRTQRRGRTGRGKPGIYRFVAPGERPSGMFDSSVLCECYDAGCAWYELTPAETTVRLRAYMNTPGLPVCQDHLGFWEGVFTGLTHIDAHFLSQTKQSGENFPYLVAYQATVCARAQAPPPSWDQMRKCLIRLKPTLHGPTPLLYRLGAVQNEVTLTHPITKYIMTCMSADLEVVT
T1 sequence (P27958 1658-1711): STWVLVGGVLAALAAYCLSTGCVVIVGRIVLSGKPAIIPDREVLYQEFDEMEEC

Structure (SMILES)	EC50 [1]	IC50 [2]
O=C1N[C@]2(C(=O)NS(=O)(=O)C3CC3)C[C@H]2/C=C\CCCCC[C@H](Nc2nc(-c3cccnc3)cs2)C(=O)N2C[C@H](OC(=O)N3Cc4cccc(F)c4C3)C[C@@H]12 [Compound 214]	< 100 nM	< 100 nM
O=C1N[C@]2(C(=O)NS(=O)(=O)C3CC3)C[C@H]2/C=C\CCCCC[C@H](Nc2nc(-c3cccc(F)c3)cs2)C(=O)N2C[C@H](OC(=O)N3Cc4cccc(F)c4C3)C[C@@H]12 [Compound 215]	< 100 nM	< 100 nM
O=C1N[C@]2(C(=O)NS(=O)(=O)C3CC3)C[C@H]2/C=C\CCCCC[C@H](Nc2nc(-c3ccc(C(F)(F)F)cc3)cs2)C(=O)N2C[C@H](OC(=O)N3Cc4cccc(F)c4C3)C[C@@H]12 [Compound 216]	< 100 nM	< 100 nM
O=C1N[C@]2(C(=O)NS(=O)(=O)C3CC3)C[C@H]2/C=C\CCCCC[C@H](Nc2nc(-c3nc4ccccc4s3)cs2)C(=O)N2C[C@H](OC(=O)N3Cc4cccc(F)c4C3)C[C@@H]12 [Compound 217]	< 100 nM	< 100 nM
O=C1N[C@]2(C(=O)NS(=O)(=O)C3CC3)C[C@H]2/C=C\CCCCC[C@H](Nc2nc(-c3cccc(C(F)(F)F)c3)cs2)C(=O)N2C[C@H](OC(=O)N3Cc4cccc(F)c4C3)C[C@@H]12 [Compound 218]	< 100 nM	< 100 nM
O=C1N[C@]2(C(=O)NS(=O)(=O)C3CC3)C[C@H]2/C=C\CCCCC[C@H](Nc2nc(-c3ccc(F)cc3F)cs2)C(=O)N2C[C@H](OC(=O)N3Cc4cccc(F)c4C3)C[C@@H]12 [Compound 219]	< 100 nM	< 100 nM
O=C1N[C@]2(C(=O)NS(=O)(=O)C3CC3)C[C@H]2/C=C\CCCCC[C@H](Nc2nc(-c3ccc(Br)cc3)cs2)C(=O)N2C[C@H](OC(=O)N3Cc4cccc(F)c4C3)C[C@@H]12 [Compound 220]	< 100 nM	< 100 nM
O=C1N[C@]2(C(=O)NS(=O)(=O)C3CC3)C[C@H]2/C=C\CCCCC[C@H](Nc2nc(-c3ccc(OC(F)(F)F)cc3)cs2)C(=O)N2C[C@H](OC(=O)N3Cc4cccc(F)c4C3)C[C@@H]12 [Compound 222]	< 100 nM	< 100 nM
O=C1N[C@]2(C(=O)NS(=O)(=O)C3CC3)C[C@H]2/C=C\CCCCC[C@H](Nc2nc(-c3ccc(F)c(F)c3)cs2)C(=O)N2C[C@H](OC(=O)N3Cc4cccc(F)c4C3)C[C@@H]12 [Compound 223]	< 100 nM	< 100 nM
O=C1NC2(C(=O)NS(=O)(=O)C3CC3)C[C@H]2/C=C\CCCCC[C@H](Nc2nc(-c3ccc(F)cc3)cs2)C(=O)N2C[C@H](OC(=O)N3Cc4cccc(F)c4C3)C[C@@H]12 (stereo partly shown) [Compound 224]	< 100 nM	< 100 nM
O=C1N[C@]2(C(=O)NS(=O)(=O)C3CC3)C[C@H]2/C=C\CCCCC[C@H](Nc2nc(-c3ccc(F)cn3)cs2)C(=O)N2C[C@H](OC(=O)N3Cc4cccc(F)c4C3)C[C@@H]12 [Compound 225]	< 100 nM	< 100 nM
Cc1cnc(N[C@H]2CCCCC/C=C\[C@@H]3C[C@@]3(C(=O)NS(=O)(=O)C3CC3)NC(=O)[C@@H]3C[C@@H](OC(=O)N4Cc5cccc(F)c5C4)CN3C2=O)s1 [Compound 226]	< 100 nM	< 100 nM
Cc1csc(N[C@H]2CCCCC/C=C\[C@@H]3C[C@@]3(C(=O)NS(=O)(=O)C3CC3)NC(=O)[C@@H]3C[C@@H](OC(=O)N4Cc5cccc(F)c5C4)CN3C2=O)n1 [Compound 227]	< 100 nM	< 100 nM
O=C1N[C@]2(C(=O)NS(=O)(=O)C3CC3)C[C@H]2/C=C\CCCCC[C@H](Nc2nc(-c3ccc(F)cn3)cs2)C(=O)N2C[C@H](OC(=O)N3Cc4cccc(Cl)c4C3)C[C@@H]12 [Compound 228]	< 100 nM	< 100 nM
O=C1N[C@]2(C(=O)NS(=O)(=O)C3CC3)C[C@H]2/C=C\CCCCC[C@H](Nc2nc(-c3ccc(F)cn3)cs2)C(=O)N2C[C@H](OC(=O)N3CCc4ccccc4C3)C[C@@H]12 [Compound 229]	< 100 nM	< 100 nM
CCc1cnc(N[C@H]2CCCCC/C=C\[C@@H]3C[C@@]3(C(=O)NS(=O)(=O)C3CC3)NC(=O)[C@@H]3C[C@@H](OC(=O)N4Cc5cccc(F)c5C4)CN3C2=O)s1 [Compound 230]	< 100 nM	< 100 nM
Cc1nc(N[C@H]2CCCCC/C=C\[C@@H]3C[C@@]3(C(=O)NS(=O)(=O)C3CC3)NC(=O)[C@@H]3C[C@@H](OC(=O)N4Cc5cccc(F)c5C4)CN3C2=O)sc1C [Compound 231]	< 100 nM	< 100 nM
O=C1N[C@]2(C(=O)NS(=O)(=O)C3CC3)C[C@H]2/C=C\CCCCC[C@H](Nc2nc(-c3ccc(F)cc3)cs2)C(=O)N2C[C@H](OC(=O)N3CCc4ccccc4C3)C[C@@H]12 [Compound 232]	< 100 nM	< 100 nM

Structure (SMILES)	EC50 [1]	IC50 [2]
CC(=O)O[C@@H]1C[C@H]2C(=O)N[C@]3(C(=O)NS(=O)(=O)C4CC4)C[C@H]3/C=C\CCCCC[C@H](Nc3nc(-c4ccc(F)cc4)cs3)C(=O)N2C1 [Compound 233]	100 to 1000 nM	< 100 nM
CC(=O)O[C@@H]1C[C@H]2C(=O)N[C@]3(C(=O)NS(=O)(=O)C4CC4)C[C@H]3/C=C\CCCCC[C@H](Nc3nc(-c4ccccc4)c(-c4ccccc4)s3)C(=O)N2C1 [Compound 235]	100 to 1000 nM	< 100 nM
CC(=O)O[C@@H]1C[C@H]2C(=O)N[C@]3(C(=O)NS(=O)(=O)C4CC4)C[C@H]3/C=C\CCCCC[C@H](Nc3nc(-c4ccc(F)cc4)c(C)s3)C(=O)N2C1 [Compound 239]	100 to 1000 nM	< 100 nM
CC(C)(C)O[C@@H]1C[C@H]2C(=O)N[C@]3(C(=O)NS(=O)(=O)C4CC4)C[C@H]3/C=C\CCCCC[C@H](Nc3nc(-c4ccccc4)c(-c4ccccc4)s3)C(=O)N2C1 [Compound 242]	1000 to 10000 nM	< 100 nM
Cc1ccc(S(=O)(=O)NC(=O)[C@@]23C[C@H]2/C=C\CCCCC[C@H](NC(=O)OC(C)(C)C)C(=O)N2C[C@H](OC(=O)N4Cc5cccc(F)c5C4)C[C@H]2C(=O)N3)cc1F [Compound 301, (2R,6S,13aS,14aR,16aS,Z)-6-(tert-butoxycarbonylamino)-14a-(3-fluoro-4-methylphenylsulfonylcarbamoyl)-5,16-dioxo-1,2,3,5,6,7,8,9,10,11,13a,14,14a,15,16,16a-hexadecahydrocyclopropa[e]pyrrolo[1,2-a][1,4]diazacyclopentadecin-2-yl 4-fluoroisoindoline-2-carboxylate]	< 100 nM	< 100 nM
Cc1cc(S(=O)(=O)NC(=O)[C@@]23C[C@H]2/C=C\CCCCC[C@H](NC(=O)OC(C)(C)C)C(=O)N2C[C@H](OC(=O)N4Cc5cccc(F)c5C4)C[C@H]2C(=O)N3)c(C)s1 [Compound 302, (2R,6S,13aS,14aR,16aS,Z)-6-(tert-butoxycarbonylamino)-14a-(2,5-dimethylthiophen-3-ylsulfonylcarbamoyl)-5,16-dioxo-1,2,3,5,6,7,8,9,10,11,13a,14,14a,15,16,16a-hexadecahydrocyclopropa[e]pyrrolo[1,2-a][1,4]diazacyclopentadecin-2-yl 4-fluoroisoindoline-2-carboxylate]	< 100 nM	< 100 nM
CN(C(=O)N[C@H]1CCCCC/C=C\[C@@H]2C[C@@]2(C(=O)NS(=O)(=O)c2ccccc2)NC(=O)[C@@H]2C[C@@H](OC(=O)N3Cc4cccc(F)c4C3)CN2C1=O)C(C)(C)C [Compound 303, (2R,6S,13aS,14aR,16aS,Z)-6-(3-tert-butyl-3-methylureido)-5,16-dioxo-14a-(phenylsulfonylcarbamoyl)-1,2,3,5,6,7,8,9,10,11,13a,14,14a,15,16,16a-hexadecahydrocyclopropa[e]pyrrolo[1,2-a][1,4]diazacyclopentadecin-2-yl 4-fluoroisoindoline-2-carboxylate]	< 100 nM	< 100 nM
CC(C)(C)OC(=O)N[C@H]1CCCCC/C=C\[C@@H]2C[C@@]2(C(=O)NS(=O)(=O)c2c(F)cccc2F)NC(=O)[C@@H]2C[C@@H](OC(=O)N3Cc4cccc(F)c4C3)CN2C1=O [Compound 306]	100 to 1000 nM	< 100 nM
CC(C)(C)OC(=O)N[C@H]1CCCCC/C=C\[C@@H]2C[C@@]2(C(=O)NS(=O)(=O)c2cc(F)ccc2F)NC(=O)[C@@H]2C[C@@H](OC(=O)N3Cc4cccc(F)c4C3)CN2C1=O [Compound 307]	< 100 nM	< 100 nM
CC(C)(C)OC(=O)N[C@H]1CCCCC/C=C\[C@@H]2C[C@@]2(C(=O)NS(=O)(=O)c2cccc(C(F)(F)F)c2)NC(=O)[C@@H]2C[C@@H](OC(=O)N3Cc4cccc(F)c4C3)CN2C1=O [Compound 308]	< 100 nM	< 100 nM
CC(C)(C)OC(=O)N[C@H]1CCCCC/C=C\[C@@H]2C[C@@]2(C(=O)NS(=O)(=O)c2cc(F)cc(F)c2)NC(=O)[C@@H]2C[C@@H](OC(=O)N3Cc4cccc(F)c4C3)CN2C1=O [Compound 309]	< 100 nM	< 100 nM
CC(C)(C)OC(=O)N[C@H]1CCCCC/C=C\[C@@H]2C[C@@]2(C(=O)NS(=O)(=O)c2ccc(F)cc2F)NC(=O)[C@@H]2C[C@@H](OC(=O)N3Cc4cccc(F)c4C3)CN2C1=O [Compound 310]	< 100 nM	< 100 nM
CC(C)(C)OC(=O)N[C@H]1CCCCC/C=C\[C@@H]2C[C@@]2(C(=O)NS(=O)(=O)c2c(Cl)cccc2Cl)NC(=O)[C@@H]2C[C@@H](OC(=O)N3Cc4cccc(F)c4C3)CN2C1=O [Compound 311]	100 to 1000 nM	< 100 nM
Cc1ccc(S(=O)(=O)NC(=O)[C@@]23C[C@H]2/C=C\CCCCC[C@H](NC(=O)OC(C)(C)C)C(=O)N2C[C@H](OC(=O)N4Cc5cccc(F)c5C4)C[C@H]2C(=O)N3)cc1Cl [Compound 312]	100 to 1000 nM	< 100 nM
Cc1ccc(C)c(S(=O)(=O)NC(=O)[C@@]23C[C@H]2/C=C\CCCCC[C@H](NC(=O)OC(C)(C)C)C(=O)N2C[C@H](OC(=O)N4Cc5cccc(F)c5C4)C[C@H]2C(=O)N3)c1 [Compound 313]	< 100 nM	< 100 nM
CC(C)(C)OC(=O)N[C@H]1CCCCC/C=C\[C@@H]2C[C@@]2(C(=O)NS(=O)(=O)c2cc(Cl)ccc2F)NC(=O)[C@@H]2C[C@@H](OC(=O)N3Cc4cccc(F)c4C3)CN2C1=O [Compound 314]	< 100 nM	< 100 nM
CC(C)(C)OC(=O)N[C@H]1CCCCC/C=C\[C@@H]2C[C@@]2(C(=O)NS(=O)(=O)c2ccc(F)c(F)c2)NC(=O)[C@@H]2C[C@@H](OC(=O)N3Cc4cccc(F)c4C3)CN2C1=O [Compound 315]	< 100 nM	< 100 nM
